Where two headings read alike, the source gives them in different places.
Legend:
[1] = tested on: HL-60(TB)
[2] = tested on: K-562; assay: panel of 60 human tumor cell lines, growth inhibition (Leukemia); settings: for GI50 / CC50: Homo sapiens; for GI50: K562; for CC50: K562, read-out: LC50; for TGI / Percent Growth: K-562
[3] = tested on: MOLT-4; assay: as above; settings: Homo sapiens; for GI50: MOLT-4; for CC50: MOLT-4, read-out: LC50; for IC (TGI): MOLT-4, read-out: TGI
[4] = tested on: SK-MEL-5; assay: panel of 60 human tumor cell lines, growth inhibition (Melanoma); settings: Homo sapiens; for GI50: SK-MEL-5; for CC50: SK-MEL-5, read-out: LC50; for IC (TGI): SK-MEL-5, read-out: TGI
[5] = tested on: UACC-257; assay: as above; settings: for GI50 / CC50: Homo sapiens; for GI50 / TGI / Percent Growth: UACC-257; for CC50: UACC-257, read-out: LC50
[6] = tested on: U251; assay: panel of 60 human tumor cell lines, growth inhibition (CNS Cancer); settings: Homo sapiens; for GI50: U-251; for CC50: U-251, read-out: LC50; for IC (TGI): U-251, read-out: TGI
[7] = tested on: 786-0; assay: panel of 60 human tumor cell lines, growth inhibition (Renal Cancer); settings: Homo sapiens; for GI50: 786-0; for CC50: 786-0, read-out: LC50; for IC (TGI): 786-0, read-out: TGI
[8] = tested on: A498; assay: as above; settings: Homo sapiens; for GI50: A498; for CC50: A498, read-out: LC50; for IC (TGI): A498, read-out: TGI
[9] = tested on: HS 578T; assay: panel of 60 human tumor cell lines, growth inhibition (Breast Cancer); settings: Homo sapiens, Hs-578T; for CC50: read-out: LC50; for IC (TGI): read-out: TGI
[10] = tested on: T-47D; assay: as above; settings: Homo sapiens, T47D; for CC50: read-out: LC50; for IC (TGI): read-out: TGI
[11] = tested on: MDA-MB-468; assay: as above; settings: Homo sapiens; for GI50: MDA-MB-468; for CC50: MDA-MB-468, read-out: LC50; for IC (TGI): MDA-MB-468, read-out: TGI
[12] = tested on: OVCAR-3; assay: panel of 60 human tumor cell lines, growth inhibition (Ovarian Cancer); settings: for GI50 / CC50 / IC (TGI): Homo sapiens; for GI50 / Percent Growth: OVCAR-3; for CC50: OVCAR-3, read-out: LC50; for IC (TGI): OVCAR-3, read-out: TGI
[13] = tested on: PC-3; assay: panel of 60 human tumor cell lines, growth inhibition (Prostate Cancer); settings: Homo sapiens; for GI50: PC-3; for CC50: PC-3, read-out: LC50; for IC (TGI): PC-3, read-out: TGI
[14] = tested on: DU-145; assay: as above; settings: Homo sapiens; for GI50: DU-145; for CC50: DU-145, read-out: LC50; for IC (TGI): DU-145, read-out: TGI
[15] = tested on: HOP-62; assay: panel of 60 human tumor cell lines, growth inhibition (Non-Small Cell Lung Cancer); settings: Homo sapiens; for GI50: HOP-62; for CC50: HOP-62, read-out: LC50; for IC (TGI): HOP-62, read-out: TGI
[16] = tested on: HOP-92; assay: as above; settings: Homo sapiens; for GI50: HOP-92, HOP-92; for CC50: HOP-92, read-out: LC50; for IC (TGI): HOP-92, read-out: TGI
[17] = tested on: NCI-H226; assay: as above; settings: Homo sapiens; for GI50: NCI-H226; for CC50: NCI-H226, read-out: LC50
[18] = tested on: NCI-H460; assay: as above; settings: Homo sapiens; for GI50: NCI-H460; for CC50: NCI-H460, read-out: LC50; for IC (TGI): NCI-H460, read-out: TGI

C=C1C(=O)O[C@H]2[C@H]1CC/C(COC(=O)OCCCN1CCCCC1)=C\CC[C@@]1(C)O[C@@H]21 [JVM 2-26]
Percent Growth ([1]; Log10 Concentration −4.0): −50% | Percent Growth ([1]; Log10 Concentration −5.0): −10% | Percent Growth ([1]; Log10 Concentration −6.0): 73% | Percent Growth ([1]; Log10 Concentration −7.0): 64% | Percent Growth ([1]; Log10 Concentration −8.0): 93% | GI50 [2]: 3.27 µM | CC50 [2]: > 100 µM | TGI [2]: 1.52E−5 | Percent Growth ([2]; Log10 Concentration −4.0): −42% | Percent Growth ([2]; Log10 Concentration −5.0): 9% | Percent Growth ([2]; Log10 Concentration −6.0): 93% | Percent Growth ([2]; Log10 Concentration −7.0): 96. % | Percent Growth ([2]; Log10 Concentration −8.0): 100% | GI50 [3]: 4.07 µM | CC50 [3]: 98.7 µM | IC (TGI) [3]: 10.4 µM | GI50 [4]: 10.6 µM | CC50 [4]: 47.6 µM | IC (TGI) [4]: 22.5 µM | GI50 [5]: 5.34 µM | CC50 [5]: 45.6 µM | TGI [5]: 1.87E−5 | Percent Growth ([5]; Log10 Concentration −4.0): −94% | Percent Growth ([5]; Log10 Concentration −5.0): 35% | Percent Growth ([5]; Log10 Concentration −6.0): 90% | Percent Growth ([5]; Log10 Concentration −7.0): 67% | Percent Growth ([5]; Log10 Concentration −8.0): 91% | GI50 [6]: 16.7 µM | CC50 [6]: 62.7 µM | IC (TGI) [6]: 32.4 µM | GI50 [7]: 2480 nM | CC50 [7]: 37.3 µM | IC (TGI) [7]: 11.1 µM | GI50 [8]: 10.1 µM | CC50 [8]: 47 µM | IC (TGI) [8]: 21.8 µM | GI50 [9]: 4.96 µM | CC50 [9]: > 100 µM | IC (TGI) [9]: 26.8 µM | GI50 [10]: 2340 nM | CC50 [10]: 45.9 µM | IC (TGI) [10]: 8.12 µM | GI50 [11]: 601 nM | CC50 [11]: 10.5 µM | IC (TGI) [11]: 2.78 µM | GI50 [12]: 1960 nM | CC50 [12]: 22 µM | IC (TGI) [12]: 5.88 µM | Percent Growth ([12]; Log10 Concentration −4.0): −100% | Percent Growth ([12]; Log10 Concentration −5.0): −24% | Percent Growth ([12]; Log10 Concentration −6.0): 80% | Percent Growth ([12]; Log10 Concentration −7.0): 96% | Percent Growth ([12]; Log10 Concentration −8.0): 98% | GI50 [13]: 12.7 µM | CC50 [13]: 56.2 µM | IC (TGI) [13]: 16.7 µM | GI50 [14]: 3.19 µM | CC50 [14]: 35.3 µM | IC (TGI) [14]: 12.5 µM | GI50 [15]: 15.3 µM | CC50 [15]: 57.7 µM | IC (TGI) [15]: 19.8 µM | GI50 [16]: 1960 nM | CC50 [16]: 31.4 µM | IC (TGI) [16]: 7.47 µM | GI50 [17]: 4.43 µM | CC50 [17]: 79.8 µM | GI50 [18]: 16.7 µM | CC50 [18]: 77.5 µM | IC (TGI) [18]: 36 µM

C=C1C(=O)O[C@H]2[C@H]1CC/C(COC(=O)NCCCCCCO)=C\CC[C@@]1(C)O[C@@H]21 [JVM 2-31]
Percent Growth ([1]; Log10 Concentration −4.0): −49% | Percent Growth ([1]; Log10 Concentration −5.0): 9% | Percent Growth ([1]; Log10 Concentration −6.0): 103% | Percent Growth ([1]; Log10 Concentration −7.0): 107% | Percent Growth ([1]; Log10 Concentration −8.0): 115% | GI50 [2]: 4.96 µM | CC50 [2]: > 100 µM | Percent Growth ([2]; Log10 Concentration −4.0): −33% | Percent Growth ([2]; Log10 Concentration −5.0): 28% | Percent Growth ([2]; Log10 Concentration −6.0): 101% | Percent Growth ([2]; Log10 Concentration −7.0): 113% | Percent Growth ([2]; Log10 Concentration −8.0): 102% | TGI ([2]; NCI five dose): 2.88E−5 | GI50 [3]: 5.33 µM | CC50 [3]: > 100 µM | IC (TGI) [3]: 26.6 µM | GI50 [4]: 6.8 µM | CC50 [4]: 54.5 µM | IC (TGI) [4]: 21.7 µM | GI50 [5]: 8.79 µM | CC50 [5]: 64.3 µM | Percent Growth ([5]; Log10 Concentration −4.0): −73% | Percent Growth ([5]; Log10 Concentration −5.0): 47% | Percent Growth ([5]; Log10 Concentration −6.0): 95% | Percent Growth ([5]; Log10 Concentration −7.0): 104% | Percent Growth ([5]; Log10 Concentration −8.0): 102% | TGI ([5]; NCI five dose): 2.47E−5 | GI50 [6]: 17.4 µM | CC50 [6]: 63.7 µM | IC (TGI) [6]: 33.3 µM | GI50 [7]: 2990 nM | CC50 [7]: 43.7 µM | IC (TGI) [7]: 13.1 µM | GI50 [8]: 12.5 µM | CC50 [8]: 53.4 µM | IC (TGI) [8]: 25.9 µM | GI50 [9]: 3.92 µM | CC50 [9]: > 100 µM | IC (TGI) [9]: 85.7 µM | GI50 [10]: 2780 nM | CC50 [10]: 87.9 µM | IC (TGI) [10]: 10 µM | GI50 [11]: 1010 nM | CC50 [11]: 35.7 µM | IC (TGI) [11]: 5.23 µM | GI50 [12]: 3400 nM | CC50 [12]: 36 µM | IC (TGI) [12]: 12.1 µM | Percent Growth ([12]; Log10 Concentration −4.0): −97% | Percent Growth ([12]; Log10 Concentration −5.0): 9% | Percent Growth ([12]; Log10 Concentration −6.0): 97% | Percent Growth ([12]; Log10 Concentration −7.0): 111% | Percent Growth ([12]; Log10 Concentration −8.0): 105% | GI50 [13]: 13.3 µM | CC50 [13]: 64.1 µM | IC (TGI) [13]: 29.2 µM | GI50 [14]: 3.68 µM | CC50 [14]: 39.4 µM | IC (TGI) [14]: 14.3 µM | GI50 [15]: 19.6 µM | CC50 [15]: 86.7 µM | IC (TGI) [15]: 41.2 µM | GI50 ([16]; NCI five dose): 2770 nM | CC50 [16]: 38.5 µM | IC (TGI) [16]: 9.99 µM | GI50 [17]: 4.92 µM | CC50 [17]: 87.2 µM | IC (TGI) ([17]; NCI-H226, read-out: TGI): 23.9 µM | GI50 [18]: 20.3 µM | CC50 [18]: > 100 µM | IC (TGI) [18]: 51.2 µM
